Experimental data: patent US7964232B2, “Steviol glycoside isomers” (PepsiCo, Inc., priority 2007, dated 2011)

Columns and labels:
[1] = Sweetness tasting by a panel of five people, compared with sucrose solution
Experimental: Iso-rebaudioside A from the x-ray crystallography sample of Example 3 was dissolved in water at a concentration of 1000 ppm, and was found by a panel of five people to have a sweetness intensity similar to that of a 7% sucrose solution; therefore its sweetness potency was estimated to be 70 times that of sucrose.

[2] = Stability/degradation in aqueous citric acid or citrate buffer under heat, followed by HPLC; assay type: physicochemical
Experimental: […] reactions were set up under identical conditions as in Example 3 except for temperatures: 43° C., 65° C., 75° C., 85° C., and 90° C. reactions were set up and followed by HPLC-MS or UV (210 nm) detection.
Two studies were performed on the pH dependency of the synthesis of iso-rebaudioside A (Cmpd X) from rebaudioside A (Reb A). Rebaudioside A was dissolved at the same concentration in a series of aqueous citric acid solutions, each having a different pH. The solutions were heated to 43° C. for 11 weeks. One study was performed with solutions at pH 2.0, 4.0, and 7.0. The other study was performed with solutions at pH 2.5, 3.0, and 3.5. Results of the two studies are shown in FIGS. 17 and 18, respectively, wherein Reb A stands for rebaudioside A and Cmpd X stands for iso-rebaudioside A. In FIG. 17, the concentration of iso-rebaudioside A at pH 2 peaks at week 9 and decreases afterwards.

[3] = cited from earlier work; for stability under acidic conditions at 60° C.: pH 2.4 to 2.6, 60° C.; for stability under acidic conditions at 100° C.: pH 2.4 to 2.6, 100° C., yields hydrolysis byproducts

| time of peak concentration before decrease (degradation) ([2]; pH 2) | degradation in acidic solution ([2]; aqueous citric acid pH 2, 43° C., after week 9) | hydrolysis at elevated temperatures ([2]; citrate buffer pH 2, 43° C. to 90° C., HPLC-MS) | Compound | sweetness intensity, equivalent sucrose solution ([1]; 1000 ppm in water, panel of five people) | sweetness potency relative to sucrose ([1]; estimated from 1000 ppm vs 7% sucrose) | degradation in acidic solution ([2]; pH 2) | stability under acidic conditions at 60° C. [3] | stability under acidic conditions at 100° C. [3] |
| --- | --- | --- | --- | --- | --- | --- | --- | --- |
| 9 week | – | – | CC1=CC23CCC4C(C)(C(=O)OC5OC(CO)C(O)C(O)C5O)CCCC4(C)C2CCC1(OC1OC(CO)C(O)C(OC2OC(CO)C(O)C(O)C2O)C1OC1OC(CO)C(O)C(O)C1O)C3 (stereo not shown) [iso-rebaudioside A] | ~7 % sucrose solution | 70 times that of sucrose | degraded/hydrolyzed into other steviol glycoside isomers | – | – |
| – | continues to decrease after week 9 | extensive hydrolysis occurred | C=C1C[C@@]23CC[C@H]4[C@@](C)(CCC[C@@]4(C)C(=O)O[C@@H]4O[C@H](CO)[C@@H](O)[C@H](O)[C@H]4O)[C@@H]2CC[C@]1(O[C@@H]1O[C@H](CO)[C@@H](O)[C@H](O[C@@H]2O[C@H](CO)[C@@H](O)[C@H](O)[C@H]2O)[C@H]1O[C@@H]1O[C@H](CO)[C@@H](O)[C@H](O)[C@H]1O)C3 [rebaudioside A] | – | – | – | quite stable | undergo drastic changes |
| – | – | – | C=C1C[C@@]23CC[C@H]4[C@@](C)(CCC[C@@]4(C)C(=O)O[C@@H]4O[C@H](CO)[C@@H](O)[C@H](O)[C@H]4O)[C@@H]2CC[C@]1(O[C@@H]1O[C@H](CO)[C@@H](O)[C@H](O)[C@H]1O[C@@H]1O[C@H](CO)[C@@H](O)[C@H](O)[C@H]1O)C3 [stevioside] | – | – | – | quite stable | undergo drastic changes |
